Results published in PMC4919791, “Effect of curcumin analogs onα-synuclein aggregation and cytotoxicity” (Scientific Reports, 2016).

Tests used:
[1] = biological target: T1, preformed α-Syn oligomers (Homo sapiens, UniProt P37840); assay: Nile red binding assay on α-Syn oligomers; assay type: biochemical; conditions: compared to α-Syn oligomers alone
T1 construct: made in house; host or cells: Escherichia coli BL21
Method: Therefore, compounds that effectively reduce the toxicity of oligomers could be beneficial for the treatment of PD.
(§1) Stock solution of NR was prepared in DMSO (1 mM). […] Similar experimental protocol was used for NR binding to oligomers. FluoroMax-4 spectrofluorometer (HORIBA JobinYvon) was used with excitation and emission slit widths of 5 nm. The maximum NR fluorescence obtained at ~630 nm was used for plotting bar diagrams.

preformed α-Syn fibrils [2] = biological target: T2, preformed α-Syn fibrils (Homo sapiens, UniProt P37840); assay: Nile red binding assay on preformed α-Syn fibrils; assay type: biochemical; conditions: fibrils incubated with analog 48 h
T2 construct: made in house; host or cells: Escherichia coli BL21
Method: as §1

α-Syn oligomers [3] = biological target: T3, α-Syn oligomers (Homo sapiens, UniProt P37840); assay: MTT assay of α-Syn oligomers pre-incubated with curcumin analogs; assay type: cell-based; conditions: 10 μM α-Syn + 5 μM analog, 30 min RT; SH-SY5Y cells
T3 construct: made in house; host or cells: Escherichia coli BL21
Text: (§2) It has been shown that α-Syn mutants that form oligomers preferentially are more toxic and kill dopaminergic neurons in animal models as compared to fibril forming mutants. Therefore, compounds that effectively reduce the toxicity of oligomers could be beneficial for the treatment of PD. In the present study, we tested the effect of curcumin and its analogs on the toxicity, hydrophobic exposure and morphology of α-Syn oligomers isolated using size exclusion chromatography (SEC). The toxicity of α-Syn oligomers in presence and absence of curcumin/analogs were initially tested using MTT assay. […] To further validate the effectiveness of C6 to reduce the cytotoxicity of α-Syn oligomers, we also performed LDH cytotoxicity assay and Calcein-AM/Ethidium homodimer-1 staining. […] As previously it has been proposed that curcumin reduces the oligomers toxicity by altering their exposed hydrophobic surface, we also measured the hydrophobic surface exposure of preformed α-Syn oligomers incubated with curcumin and its analogs.
For isolation of α-Syn oligomers, we used previously established protocol. Briefly, lyophilized α-Syn powder was dissolved in MES buffer, pH 6.0, 0.01% NaN3, at a concentration of 50 mg/ml. The dissolved protein was then centrifuged at 14,000 × g for 30 min at 4 °C using a table top microcentrifuge (HITACHI, himac CT15RE, Japan). […]

[4] = Stability of curcumin analogs by time-dependent intrinsic fluorescence; assay type: physicochemical; conditions: 20 mM MES buffer pH 6.0, 0.01% NaN3, 37 °C
Method: 1μl of this DMSO-stock solution was transferred to 2 ml microfuge tube and 1 ml of 20 mM MES buffer (pH 6.0, 0.01% NaN3) was added to it and mixed immediately by vortexing. These solutions were incubated at 37 °C and their respective fluorescence was taken at certain time intervals. The fluorescence was monitored by placing the 200 μl of the incubated solution in 0.1 cm path-length quartz cuvette (Hellma, Forest Hills, NY) and the spectra were acquired by using FluoroMax-4 spectrofluorometer (HORIBA JobinYvon) instrument with excitation and emission slit widths of 5 nm and 10 nm respectively. The fluorescence intensity maxima for each sample were plotted against time of incubation and fitted in exponential decay 1 in the Origin 8.0 software according to manufacture’s protocol (Fig. 2A).

α-Syn = biological target: T4, α-Syn (Homo sapiens, UniProt P37840); assay: TEM of α-Syn aggregates formed in presence of analogs; assay type: biochemical
T4 construct: made in house; host or cells: Escherichia coli BL21
Method: Subsequently, we examined the effect of these analogs on α-Syn oligomerization by time dependent static light scattering experiment. […] After aggregation, TEM study was done to determine the effects of these analogs on the morphology of the resultant aggregates.
The samples were then washed thrice with autoclaved MQ. The samples were then stained with 10 μl of uranyl formate 1% (w/v) and incubated in dark for 10 min. The EM image of each sample was acquired at 120 kV with magnifications in the range of 26,000X and 43,000X using a transmission electron microscope (TECNAI12 D312 FEI, Netherlands).

preformed α-Syn fibrils [5] = biological target: T2, preformed α-Syn fibrils; assay: LDH cytotoxicity assay of preformed α-Syn fibrils incubated with curcumin analogs; assay type: cell-based; conditions: fibrils incubated with analog 48 h; SH-SY5Y cells
Method: (§3) The concentration of the fibrils was determined by subtraction of supernatant concentration from the original concentration of α-Syn kept for fibrillation.
(§4) The percent LDH release was plotted as difference in the absorbance value of 490 nm and 690 nm, considering 100% release for the TritonX-100 treated cells.

preformed α-Syn fibrils [6] = biological target: T2, preformed α-Syn fibrils; assay: CD spectroscopy of preformed α-Syn fibrils with analogs; assay type: biochemical; conditions: 0 h and 48 h of incubation
Method: Further, the effect of curcumin analogs on the secondary structure of protein in preformed amyloid fibrils was studied by circular dichroism (CD) spectroscopy at 0 h and after 48 h of incubation. […] To further validate this, Fourier transform infrared spectroscopy (FTIR) was also performed with these samples, where spectra were recorded from 1500 to 1800 cm^−1.The region characteristic of protein secondary structures (1600–1700 cm^−1) was deconvoluted and the peaks were assigned according to published reports. FTIR spectra in the 1600–1700 cm^−1 region of preformed α-Syn fibrils in absence and presence of curcumin and its analogs are presented in Figs 4B and S4 and their percentage of secondary structures are shown in Table-S1.
20 μl of protein solution from 80 μM stock was diluted to 200 μl in 20 mM MES buffer, pH 6.0 with 0.01% NaN3 such that final protein concentration becomes 8 μM. The protein solution was then placed into a quartz cell (Hellma, Forest Hills, NY) of 0.1 cm path-length. Spectra were recorded using JASCO-810 instrument at 25 °C. Spectra acquisition was over the wavelength range of 198–260 nm with the scan speed of 100 nm/min, bandwidth 1 nm, data pitch 1 nm and response time of 1 sec. Processing of raw data was done by subtraction of buffer spectra and subsequently smoothing according to the manufacturer’s instructions.

α-Syn oligomers [7] = biological target: T3, α-Syn oligomers; assay: TEM of α-Syn oligomers with C1/C6; assay type: biochemical
Text: as §2
5 μl of various species of α-Syn (50 μM) incubated in absence and presence of curcumin and its analogs were spotted on carbon coated formavar grid and air dried for 10 min. The samples were then washed thrice with autoclaved MQ. The samples were then stained with 10 μl of uranyl formate 1% (w/v) and incubated in dark for 10 min. […]

[8] = biological target: T5, preformed α-Syn amyloid fibrils (Homo sapiens, UniProt P37840); assay: MTT assay of preformed α-Syn fibrils incubated with curcumin analogs; assay type: cell-based; conditions: fibrils incubated with analog 48 h at 37 °C; SH-SY5Y cells
T5 construct: made in house; host or cells: Escherichia coli BL21
Method: as §3

preformed α-Syn fibrils [9] = biological target: T2, preformed α-Syn fibrils; assay: Calcein-AM/EthD-1 staining, preformed α-Syn fibrils with analogs; assay type: cell-based; conditions: SH-SY5Y cells
Method: Previously it has been shown that curcumin decreases the toxicity of α-Syn amyloid fibrils by reducing the exposed hydrophobic surfaces. To delineate whether curcumin analogs can decrease the toxicity of preformed α-Syn fibrils, we performed cell viability assay. For this, 10-days incubated α-Syn solution was centrifuged (fibril formation was confirmed by electron microscopy (EM)) and the pelleted fibrils were then re-dissolved in same volume of 20 mM MES buffer (pH 6.0, 0.01% NaN3). The concentration of the fibrils was determined by subtraction of supernatant concentration from the original concentration of α-Syn kept for fibrillation. […] After incubation, we measured the effect of curcumin analogs on the toxicity of preformed α-Syn amyloid fibrils by MTT reduction assay on SH-SY5Y cells. […]
(§5) For this assay, SH-SY5Y cells were seeded in 96 well plate and incubated with identical concentrations of oligomers/fibrils (as used in MTT assay) in absence and presence of curcumin and its analogs for 36 h in 5% CO2 incubator at 37 °C. […] Calcein-AM/Ethidium homodimer-1 signal was then checked and imaged with an inverted fluorescence microscope (Leica DMi8). […] The free calcein emits strong fluorescence signal at ~535 nm, which could be easily observed in the green channel of a microscope. […]

α-Syn fibrils [10] = biological target: T6, α-Syn fibrils (Homo sapiens, UniProt P37840); assay: MTT assay of α-Syn fibrils formed in presence of curcumin analogs; assay type: cell-based; conditions: 10 μM α-Syn fibril, 36 h, SH-SY5Y
T6 construct: made in house; host or cells: Escherichia coli BL21
Method: Next, we measured the effect of α-Syn fibrils formed in presence and absence of curcumin analogs on the viability of SH-SY5Y neuronal cell line by MTT reduction assay. SH-SY5Y cells were incubated with 10 μM α-Syn fibril formed in presence of various curcumin analogs for 36 h. […] However, the extent of decrease in toxicity was different for different analogs. […] The calcein-AM/ethidium homodimer-1 staining also further corroborated the results obtained from MTT and LDH assay (Fig. 8C).

α-Syn fibrils [11] = biological target: T6, α-Syn fibrils; assay: LDH cytotoxicity assay of α-Syn fibrils formed in presence of curcumin analogs; assay type: cell-based; conditions: SH-SY5Y cells
Text: as §4

α-Syn oligomers [12] = biological target: T3, α-Syn oligomers; assay: LDH cytotoxicity assay of α-Syn oligomers with C1/C6; assay type: cell-based; conditions: oligomers incubated 30 minutes with compound; SH-SY5Y cells
Text: as §2
10 μM of α-Syn oligomers/fibrils incubated with and without 5 μM curcumin/analogs were added to SH-SY5Y cells (10,000 cells/well) in 96 well plate. […] The percent LDH release was plotted as difference in the absorbance value of 490 nm and 690 nm, considering 100% release for the TritonX-100 treated cells.

α-Syn oligomers [13] = biological target: T3, α-Syn oligomers; assay: Calcein-AM/EthD-1 staining, α-Syn oligomers with C1/C6; assay type: cell-based; conditions: SH-SY5Y cells
Text: It has been shown that α-Syn mutants that form oligomers preferentially are more toxic and kill dopaminergic neurons in animal models as compared to fibril forming mutants. Therefore, compounds that effectively reduce the toxicity of oligomers could be beneficial for the treatment of PD. In the present study, we tested the effect of curcumin and its analogs on the toxicity, hydrophobic exposure and morphology of α-Syn oligomers isolated using size exclusion chromatography (SEC). The toxicity of α-Syn oligomers in presence and absence of curcumin/analogs were initially tested using MTT assay. […] As previously it has been proposed that curcumin reduces the oligomers toxicity by altering their exposed hydrophobic surface, we also measured the hydrophobic surface exposure of preformed α-Syn oligomers incubated with curcumin and its analogs.
as §5

secondary structure of preformed α-Syn fibrils by CD (preformed α-Syn fibrils [6]) | morphology of α-Syn oligomers (TEM) (α-Syn oligomers [7]) | Calcein-AM/EthD-1 staining with preformed α-Syn fibrils (preformed α-Syn fibrils [9]) | ethidium homodimer staining with α-Syn oligomers (α-Syn oligomers [13]) | SMILES | Nile red fluorescence of α-Syn oligomers (exposed hydrophobic surface) [1] | Nile red fluorescence of preformed α-Syn fibrils (exposed hydrophobic surface) (preformed α-Syn fibrils [2]) | effect on toxicity of α-Syn oligomers, MTT (α-Syn oligomers [3]) | relative stability compared with curcumin (slope of normalized fluorescence versus time) [4] | average fibril thickness of fibrils formed in presence of analog (α-Syn) | effect on cell death by preformed α-Syn fibrils, LDH (preformed α-Syn fibrils [5]) | effect on toxicity of preformed α-Syn fibrils, MTT [8] | toxicity of α-Syn fibrils formed in presence of analog, MTT (α-Syn fibrils [10]) | toxicity of α-Syn fibrils formed in presence of analog, LDH (α-Syn fibrils [11]) | LDH release with α-Syn oligomers (α-Syn oligomers [12])
 |  |  |  | COc1ccc(/C=C/C(=O)CC(=O)/C=C/c2ccc(OC)c(OC)c2)cc1OC [C2] | increase in NR fluorescence | less NR fluorescence for fibrils as compared to curcumin | slight reduction in the toxicity | less stable than curcumin | more in comparison to fibrils formed in presence of other analogs | decrease in cell death |  |  |  | 
remains unaltered | significantly altered their morphology | less nuclear staining by EthD-1 | less ethidium homodimer staining | COc1cc(/C=C/C(=O)CC(=O)/C=C/c2ccc(O)c(OC)c2)ccc1O [C1, Curcumin (diferuloylmethane), reference compound] |  |  |  |  |  | decrease in cell death | reduction in toxicity | less toxicity to cells | less toxicity to cells | reduced LDH release
